{"source": "paper PMC5789847", "about": "“Bismuth antimicrobial drugs serve as broad-spectrum metallo-β-lactamase inhibitors” (Nature Communications, 2018)", "key": {"NDM-1 [1]": {"molecular_target": "T1, NDM-1 (Klebsiella pneumoniae, UniProt C7C422)", "type": "biochemical", "conditions": "Bi(III) 1.5 µM (as Bi(NIT)3); 0.900 at 0 µM"}, "NDM-1-C208A": {"molecular_target": "NDM-1-C208A (Klebsiella pneumoniae, UniProt C7C422, C208A)", "sequence (C7C422 29-270 C208A)": "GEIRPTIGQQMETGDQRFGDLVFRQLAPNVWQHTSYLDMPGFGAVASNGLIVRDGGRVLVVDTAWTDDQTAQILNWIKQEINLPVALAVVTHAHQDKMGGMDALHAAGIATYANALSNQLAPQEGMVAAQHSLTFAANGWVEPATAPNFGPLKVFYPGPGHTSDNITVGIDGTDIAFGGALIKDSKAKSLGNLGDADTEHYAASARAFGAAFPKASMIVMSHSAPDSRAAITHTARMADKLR", "test": "Bi(III) binding capacity by ICP-MS", "method": "To monitor the displacement of Zn(II) by Bi(III), ICP-MS was employed to accurately quantify ^209Bi and ^66Zn contents in various purified NDM-1 samples. Purified Zn-bound-NDM-1 (20 μM) dissolved in trace-metal-free ICP-MS buffer containing 50 mM HEPES, pH 7.0, was incubated with various concentrations of CBS at 25 °C for 5 h with mild shaking. The samples were subsequently dialyzed in ICP-MS buffer to remove unbound-metal ions and were then acidified and subsequently analyzed using an ICP-MS spectrometer (Agilent 7500a, Agilent Technologies, CA, USA) with ^115In as an internal standard for ^209Bi, ^66Zn, and ^34S contents, which are used to quantify protein concentration."}, "NDM-1 [2]": {"molecular_target": "T1, NDM-1", "test": "Zinc supplementation assay", "type": "biochemical", "conditions": "supplementation of 2 molar equivalents of Zn(II); Bi-NDM-1 prepared with CBS", "method": "To investigate whether bismuth inhibits the enzyme reversibly, enzyme activities of Bi-NDM-1 and apo-NDM-1 were compared upon the supplementation of Zn(II). Bi-bound NDM-1 (50 nM) was prepared by pre-incubation of apo-bound NDM-1 with CBS for 2 h at 25 °C, followed by removal of unbound Bi(III) and the bound Bi was verified by ICP-MS. The above protein solutions were mixed with ZnSO4 at concentration up to 2 molar equivalents to NDM-1 and 100 µM MER. The change in absorbance at 300 nm was monitored on a Varian Cary 50 UV-visible spectrophotometer at 25 °C for calculation of reaction rates. Reaction rate of apo-NDM-1 with addition of 2 molar equivalents of ZnSO4 was normalized to 1. The metal content of Bi-bound NDM-1 treated with Zn(II) was measured and analyzed by ICP-MS as described in the previous section."}, "IMP-BL21 (IMP-4^+)": {"test_system": "IMP-BL21 (IMP-4^+)", "test": "microbe, parasite or virus in culture", "type": "cell-based, E. coli", "method": "(§1) MIC values were determined by standard broth micro-dilution method (Clinical and Laboratory Standards Institute (CLSI) M100-S20, 2010)[64]. Briefly, bacterial cells were cultured in LB broth overnight at 37 °C at 250 rpm and the OD was measured at 600 nm (OD600). The bacterial density was adjusted to about 1 × 10^6 CFU mL^−1 and checked by CFU counting on agar plates afterwards. Tested antibiotics or Bi(III) compounds were added triplicately into individual wells of flat-bottomed 96-well plates and performed 2-fold serial dilution, followed by addition of prepared bacterial inocula. The plate was then incubated at 37 °C for overnight. […] The MIC was determined as the lowest concentration of a drug that could inhibit the growth of microorganism by both visual reading and OD reading at 600 nm using a microtiter plate reader.\n(§2) Resulting growth (or lack of growth) was examined after overnight culturing and the lowest concentration that inhibits 99.9% of the original culture was taken as MBC.\n(§3) Other procedures were kept strictly the same. […] Synergism was defined when FICI ≤ 0.5, indifference was defined when FICI > 0.5 and < 4, and antagonism was defined when FICI≥4[65]. […] All of the determinations were performed at least in triplicate on different days."}, "NDM-HK (NDM-1^+)": {"test_system": "NDM-HK (NDM-1^+)", "test": "microbe, parasite or virus in culture", "type": "cell-based, E. coli", "method": "as §1, §2, §3"}, "VIM-BL21 (VIM-2^+)": {"test_system": "VIM-BL21 (VIM-2^+)", "test": "microbe, parasite or virus in culture", "type": "cell-based, E. coli", "method": "as §1, §2, §3"}, "[3]": {"test_system": "NDM-K. pneumonia (NDM-1^+)", "test": "Microdilution MIC/MBC and checkerboard assay", "type": "cell-based, Klebsiella pneumonia", "method": "as §1, §2, §3"}, "[4]": {"test_system": "NDM-C. freundii (NDM-1^+)", "test": "Microdilution MIC/MBC and checkerboard assay", "type": "cell-based, Citrobacter freundii", "method": "as §1, §2, §3"}, "NDM-1 [5]": {"molecular_target": "T1, NDM-1", "type": "biochemical", "conditions": "NDM-1 50 nM, 1 h preincubation, MER substrate", "method": "(§4) Freshly prepared 50 nM of Zn2-NDM-1, Zn2-VIM-2, or Zn2-IMP-4 in 50 mM HEPES/Na pH 7.0, 100 mM NaCl were first incubated with various concentrations of CBS for 1 h at 25 °C, then mixed with equal volume of 0.2 mM MER. The assay was performed in a 1 cm quartz cuvette using the kinetic mode on a Varian Cary50 UV-visible spectrophotometer at 25 °C. The decrease in absorbance at 300 nm due to ring-opening of MER was monitored every second for a duration of 10 min until the reaction was completed. The initial rates were extracted and calculated from each reaction curves for fitting IC50 curves."}, "VIM-2": {"molecular_target": "VIM-2 (Escherichia coli, UniProt Q5U7L7)", "type": "biochemical", "conditions": "VIM-2 50 nM, 1 h preincubation, MER substrate", "method": "as §4"}, "IMP-4": {"molecular_target": "IMP-4", "test": "IC50 enzyme inhibition assay", "type": "biochemical", "conditions": "IMP-4 50 nM, 1 h preincubation, MER substrate", "method": "as §4"}, "NDM-HK [6]": {"test_system": "NDM-HK", "test": "Time kill assay", "type": "cell-based, E. coli", "conditions": "MER 24 µg mL^−1 + Bi(NAC)3 32 µg mL^−1", "method": "Time kill assay was used to further explore the synergy between MER and Bi(III) compounds. In a typical assay, NDM-HK was cultured overnight and diluted 1:250 into LB broth at 37 °C for 3 h to reach log phase. The initial bacterial density was adjusted to ~10^7 CFU mL^−1 and then exposed to MER, Bi(III) compounds either alone or in combination. LB broth with no drugs served as a control. Aliquots of bacterial suspension were withdrawn at different time intervals (0, 1, 2, 4, 6, 8, and 24 h) for inspection of bacterial viability by agar plating. The concentrations of the drugs used in the test are 24 µg mL^−1 for MER, 64 µg mL^−1 for CBS, and 32 µg mL^−1 for Bi(NAC)3. Data from three independent experiments were averaged and plotted as log10 CFU mL^−1 vs. time (h) for each time point over 24 h. All assays were triplicated and performed three times on different days."}, "NDM-HK [7]": {"test_system": "NDM-HK", "test": "Resistance study: MPC and mutation frequency", "type": "cell-based, E. coli", "conditions": "≥64 µg mL^−1 Bi(NAC)3"}, "[8]": {"test_system": "MBL-positive bacterial strains", "conditions": "with MER, different MBL-positive strains", "method": "as §1, §2, §3"}, "NDM-1 [9]": {"molecular_target": "T1, NDM-1", "type": "cell-based", "parameters": "endogenous in cells; host or cells: E. coli clinical isolate NDM-HK", "conditions": "NDM-HK cultured with 100 µM compound; control 50.1 °C", "method": "The cellular thermal shift assay was performed according to a standard method. Clinical isolate of NDM-1-positive E. coli (NDM-HK) was cultured overnight in the absence or presence of 100 µM Bi(III) compounds, i.e., CBS, Bi(NAC)3, Bi(NIT)3. The bacterial pellets were harvested and washed with PBS for 4 times. The cell suspensions were aliquoted into PCR tubes and heat treatment was performed at the designated temperature ranging from 40 °C to 70 °C for 3 min in a 96-well thermal cycler. The tubes were cooled immediately at room temperature for another 3 min after heating and the heating procedures were repeated for three cycles. For the cell lysis, the samples were frozen–thawed for two cycles in liquid nitrogen and thermal cycler set at 25 °C. The samples were vortexed gently after each cycle and were centrifuged at 20,000 × g to obtain the supernatant when the second cycle was finished. All the samples were subjected to western blot analysis for detection and quantification of NDM-1 content as described above."}}, "note": "“And” between values parts separate entries of the source, which are not always exact repeats. Equal values may be shown once.", "data": [{"smiles": "[Bi+3]", "note": "[Bi(III)]", "values": [{"measurement": "apparent Vmax", "setting": "NDM-1 [1]", "result": 0.365, "unit": "µM/s"}, {"measurement": "Bi(III) bound to the mutant", "setting": "NDM-1-C208A", "result": "ca. 0.25 molar equivalents"}, {"measurement": "activity restored for Bi-bound NDM-1", "setting": "NDM-1 [2]", "result": "about 20%"}]}, {"smiles": "CC(=O)N[C@@H](C[S][Bi]([S]C[C@H](NC(C)=O)C(=O)O)[S]C[C@H](NC(C)=O)C(=O)O)C(=O)O", "note": "[Bi(NAC)3]", "values": [{"measurement": "decrease in the MIC of MER", "setting": "IMP-BL21 (IMP-4^+); IMP-4-positive E. coli", "result": 16, "unit": "fold"}, {"measurement": "MBC of MER in combination with compound at 32 µg mL^-1", "setting": "IMP-BL21 (IMP-4^+); IMP-BL21", "result": "2 µg mL^-1 and 2/2 µg mL^-1"}, {"measurement": "MIC of MER in combination with compound at 32 µg mL^-1", "setting": "IMP-BL21 (IMP-4^+); IMP-BL21", "result": "2 µg mL^-1 and 2/2 µg mL^-1"}, {"measurement": "FICI", "setting": "IMP-BL21 (IMP-4^+); IMP-BL21, MER + compound, 256 µg mL^-1 set as MIC of Bi(III)", "result": 0.125}, {"measurement": "decrease in the MIC of MER", "setting": "NDM-HK (NDM-1^+); NDM-1-positive E. coli", "result": 32, "unit": "fold"}, {"measurement": "MBC of Bi(III) compound/inhibitor alone", "setting": "NDM-HK (NDM-1^+); NDM-HK", "result": "> 256", "unit": "µg/mL"}, {"measurement": "MBC of MER in combination with compound at 32 µg mL^-1", "setting": "NDM-HK (NDM-1^+); NDM-HK", "result": 0.5, "unit": "µg/mL"}, {"measurement": "MIC of Bi(III) compound/inhibitor alone", "setting": "NDM-HK (NDM-1^+); NDM-HK", "result": 128, "unit": "µg/mL"}, {"measurement": "MIC of MER in combination with compound at 32 µg mL^-1", "setting": "NDM-HK (NDM-1^+); NDM-HK", "result": 0.5, "unit": "µg/mL"}, {"measurement": "decrease in the MIC of MER", "setting": "VIM-BL21 (VIM-2^+); VIM-2-positive E. coli", "result": 64, "unit": "fold"}, {"measurement": "MBC of MER in combination with compound at 32 µg mL^-1", "setting": "VIM-BL21 (VIM-2^+); VIM-BL21", "result": 1, "unit": "µg/mL"}, {"measurement": "MIC of MER in combination with compound at 32 µg mL^-1", "setting": "VIM-BL21 (VIM-2^+); VIM-BL21", "result": 0.5, "unit": "µg/mL"}, {"measurement": "FICI", "setting": "VIM-BL21 (VIM-2^+); VIM-BL21, MER + compound, 256 µg mL^-1 set as MIC of Bi(III)", "result": 0.063}, {"measurement": "MBC of MER in combination with compound at 32 µg mL^-1", "setting": "[3]; NDM-K. pneumonia (NDM-KP)", "result": 2, "unit": "µg/mL"}, {"measurement": "MIC of MER in combination with compound at 32 µg mL^-1", "setting": "[3]; NDM-K. pneumonia (NDM-KP)", "result": 1, "unit": "µg/mL"}, {"measurement": "MBC of Bi(III) compound alone", "setting": "[3]; NDM-KP", "result": "> 256", "unit": "µg/mL"}, {"measurement": "MIC of Bi(III) compound alone", "setting": "[3]; NDM-KP", "result": 256, "unit": "µg/mL"}, {"measurement": "FICI", "setting": "[3]; NDM-KP, MER + compound, 256 µg mL^-1 set as MIC of Bi(III)", "result": 0.188}, {"measurement": "MBC of MER in combination with compound at 32 µg mL^-1", "setting": "[4]; NDM-C. freundii (NDM-CF)", "result": "0.5 µg mL^-1 and 0.5/0.5 µg mL^-1"}, {"measurement": "MIC of MER in combination with compound at 32 µg mL^-1", "setting": "[4]; NDM-C. freundii (NDM-CF)", "result": "0.5 µg mL^-1 and 0.5/0.5 µg mL^-1"}, {"measurement": "MBC of Bi(III) compound alone", "setting": "[4]; NDM-CF", "result": "> 256", "unit": "µg/mL"}, {"measurement": "MIC of Bi(III) compound alone", "setting": "[4]; NDM-CF", "result": 256, "unit": "µg/mL"}, {"measurement": "FICI", "setting": "[4]; NDM-CF, MER + compound, 256 µg mL^-1 set as MIC of Bi(III)", "result": 0.188}, {"measurement": "IC50", "setting": "NDM-1 [5]", "result": "1650 ± 600", "unit": "nM"}, {"measurement": "IC50", "setting": "VIM-2", "result": "2650 ± 570", "unit": "nM"}, {"measurement": "IC50", "setting": "IMP-4", "result": "2800 ± 790", "unit": "nM"}, {"measurement": "time to eradicate the bacterium completely", "setting": "NDM-HK [6]", "result": "≤ 6", "unit": "h"}, {"measurement": "MER MPC with Bi(NAC)3", "setting": "NDM-HK [7]", "result": 2, "unit": "fold MIC"}, {"measurement": "FICI values", "setting": "[8]", "result": "0.063 to 0.188"}, {"measurement": "NDM-1 melting temperature, treated group", "setting": "NDM-1 [9]", "result": 47.7, "unit": "°C"}]}]}
